Test results reported in US8293774B2, “Optically active (R)-aryloxypropionic acid amides and herbicidal composition comprising same” (Kyung Nong Corporation, priority 2007, dated 2012).

Assays:
Test in all cases: Weed control test, foliage treatment (Test Example 1, Table 7)
[1] = tested on: ORYSA (Oryza sativa cv. Dongjin, rice); settings: in vivo
Protocol: (§1) Seeds of rice, wheat, soy bean, barley, corn, common sorgum, barnyard grass, large crabgrass, creek grass, green foxtail and fall panicum were placed in sandy loam in 600 cm^2 pots and covered with soil. After keeping the pots in a greenhouse at 20 to 30° C. allowing growth of the plants to the 3-leaf stage of the barnyard grass, 2,000 l/ha of an emulsion obtained by diluting with water a mixture of 1 part by weight of a test compound, 5 parts by weight of acetone and 1 part by weight of an emulsifying agent (Tween 80, Junsei) was applied to the surface of the foliage of the plants. The plant damage at 10 days and 20 days after the foliage treatment was visually evaluated from the level of 1 to 100% by comparison with the untreated control: […]

[2] = tested on: TRZAW (Tritium aestivum L., wheat); settings: in vivo
Protocol: as §1

[3] = tested on: HORVU (Hordeum vulgare L., barley); settings: in vivo
Protocol: as §1

[4] = tested on: GLXMA (Glycine max(L.) MERR, soy bean); settings: in vivo
Protocol: as §1

[5] = tested on: SORBI (Andropogon sorghum, common sorgum); type: in vivo; settings: Sorghum bicolor, foliar, read-out: Plant damage (herbicidal activity), visually evaluated, SORBI; for pest or weed control at 25 g/ha: 0.025 kg/ha; for pest or weed control at 100 g/ha: 0.1 kg/ha; for pest or weed control at 200 g/ha: 0.2 kg/ha
Protocol: as §1

[6] = tested on: ZEAMX (Zea mays L., corn); type: in vivo; settings: Zea mays, foliar, read-out: Plant damage (herbicidal activity), visually evaluated, ZEAMX; for plant injury at 25 g/ha: 0.025 kg/ha; for plant injury at 100 g/ha: 0.1 kg/ha; for plant injury at 200 g/ha: 0.2 kg/ha
Protocol: as §1

[7] = tested on: SETVIR (Setaria viridis (L.) Beauv, green foxtail); type: in vivo; settings: Setaria viridis, foliar, read-out: Plant damage (herbicidal activity), visually evaluated, SETVIR; for pest or weed control at 25 g/ha: 0.025 kg/ha; for pest or weed control at 100 g/ha: 0.1 kg/ha; for pest or weed control at 200 g/ha: 0.2 kg/ha
Protocol: as §1

[8] = tested on: ARTHIS (Arthraxon hispidus (Thunb.) Makino, creek grass); type: in vivo; settings: Arthraxon hispidus, foliar, read-out: Plant damage (herbicidal activity), visually evaluated, ARTHIS; for pest or weed control at 25 g/ha: 0.025 kg/ha; for pest or weed control at 100 g/ha: 0.1 kg/ha; for pest or weed control at 200 g/ha: 0.2 kg/ha
Protocol: as §1

[9] = tested on: DIGSA (Digitaria Sanguinalis (L.) SCOP, large crabgrass); type: in vivo; settings: Digitaria sanguinalis, foliar, read-out: Plant damage (herbicidal activity), visually evaluated, DIGSA; for pest or weed control at 25 g/ha: 0.025 kg/ha; for pest or weed control at 100 g/ha: 0.1 kg/ha; for pest or weed control at 200 g/ha: 0.2 kg/ha
Protocol: as §1

[10] = tested on: ECHOG (Echinoch crus-galli Beauv. var. caudata Kitagawa, barnyard grass); type: in vivo; settings: Echinochloa crus-galli, foliar, 3-leaf stage, read-out: Plant damage (herbicidal activity), visually evaluated, ECHOG; for pest or weed control at 25 g/ha: 0.025 kg/ha; for pest or weed control at 100 g/ha: 0.1 kg/ha; for pest or weed control at 200 g/ha: 0.2 kg/ha
Protocol: as §1

[11] = tested on: PANDI (Panium dichotomiflorum Michx, fall panicum); type: in vivo; settings: Panicum dichotomiflorum, foliar, read-out: Plant damage (herbicidal activity), visually evaluated, PANDI; for pest or weed control at 25 g/ha: 0.025 kg/ha; for pest or weed control at 100 g/ha: 0.1 kg/ha; for pest or weed control at 200 g/ha: 0.2 kg/ha
Protocol: as §1

Row | Compound | Plant damage (herbicidal activity), visually evaluated, ORYSA [1] [%] | Plant damage (herbicidal activity), visually evaluated, TRZAW [2] [%] | Plant damage (herbicidal activity), visually evaluated, HORVU [3] [%] | Plant damage (herbicidal activity), visually evaluated, GLXMA [4] [%] | pest or weed control at 25 g/ha [5] [%] | pest or weed control at 100 g/ha [5] [%] | pest or weed control at 200 g/ha [5] [%] | plant injury at 25 g/ha [6] [%] | plant injury at 100 g/ha [6] [%] | plant injury at 200 g/ha [6] [%] | pest or weed control at 25 g/ha [7] [%] | pest or weed control at 100 g/ha [7] [%] | pest or weed control at 200 g/ha [7] [%] | pest or weed control at 25 g/ha [8] [%] | pest or weed control at 100 g/ha [8] [%] | pest or weed control at 200 g/ha [8] [%] | pest or weed control at 25 g/ha [9] [%] | pest or weed control at 100 g/ha [9] [%] | pest or weed control at 200 g/ha [9] [%] | pest or weed control at 25 g/ha [10] [%] | further results
1 | C[C@@H](Oc1ccc(Oc2ccc(C#N)cc2F)cc1)C(=O)Nc1nc2ccc(F)cc2s1 [Example 23, (R)-2-[4-(4-cyano-2-fluorophenoxy)phenoxy]propionic acid-N-(6-fluoro-2-benzothiazolyl)amide] | 0 | 0 | 0 | 0 | 0 | 20 | 20 | 10 | 90 | 90 | 0 | 0 | 20 | 0 | 0 | 10 | 0 | 20 | 20 | 20 | pest or weed control at 100 g/ha [10]: 50%; pest or weed control at 200 g/ha [10]: 50%; pest or weed control at 25 g/ha [11]: 0%; pest or weed control at 100 g/ha [11]: 0%; pest or weed control at 200 g/ha [11]: 10%
2 | Cc1ccc2nc(N(C)C(=O)[C@@H](C)Oc3ccc(Oc4ccc(C#N)cc4F)cc3)sc2c1 [Example 26, (R)-2-[4-(4-cyano-2-fluorophenoxy)phenoxy]propionic acid-N-(6-methyl-2-benzothiazolyl)-N-methyl amide] | 0 | 0 | 0 | 0 | 10 | 20 | 35 | 10 | 10 | 30 | 0 | 0 | 0 | 0 | 0 | 0 | 0 | 0 | 0 | 0 | pest or weed control at 100 g/ha [10]: 0%; pest or weed control at 200 g/ha [10]: 0%; pest or weed control at 25 g/ha [11]: 0%; pest or weed control at 100 g/ha [11]: 0%; pest or weed control at 200 g/ha [11]: 0%
3 | Cc1cc(NC(=O)[C@@H](C)Oc2ccc(Oc3ccc(C#N)cc3F)cc2)n(C)n1 [Example 29, (R)-2-[4-(4-cyano-2-fluorophenoxy)phenoxy]propionic acid-N-(1,3-dimethyl-5-pyrazolyl)amide] | 0 | 0 | 0 | 0 | 0 | 20 | 50 | 0 | 5 | 30 | 0 | 0 | 20 | 0 | 0 | 10 | 0 | 20 | 90 | 20 | pest or weed control at 100 g/ha [10]: 70%; pest or weed control at 200 g/ha [10]: 90%; pest or weed control at 25 g/ha [11]: 0%; pest or weed control at 100 g/ha [11]: 0%; pest or weed control at 200 g/ha [11]: 10%
4 | C[C@@H](Oc1ccc(Oc2ccc(C#N)cc2F)cc1)C(=O)Nc1nccs1 [Example 31, (R)-2-[4-(4-cyano-2-fluorophenoxy)phenoxy]propionic acid-N-(2-thiazolyl)amide] | 0 | 0 | 0 | 0 | 0 | 20 | 50 | 20 | 90 | 90 | 0 | 70 | 70 | 0 | 70 | 70 | 0 | 20 | 70 | 0 | pest or weed control at 100 g/ha [10]: 50%; pest or weed control at 200 g/ha [10]: 90%; pest or weed control at 25 g/ha [11]: 0%; pest or weed control at 100 g/ha [11]: 20%; pest or weed control at 200 g/ha [11]: 20%
